PubChem BioAssay (NCI)
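Briefly, cells in 96-well plates were exposed to five compound concentrations for 48 h, and endpoints were estimated by linear interpolation. TGI: total growth inhibition.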

What was measured:
Assay in all cases: NCI-60 cell line screen, 48 h
[1] = tested on: RPMI-8226 leukemia
[2] = tested on: EKVX NSCLC
[3] = tested on: RXF 393 renal
[4] = tested on: PC-3 prostate
[5] = tested on: COLO 205 colon
[6] = tested on: 786-0 renal
[7] = tested on: SK-MEL-2 melanoma
[8] = tested on: DU-145 prostate
[9] = tested on: OVCAR-4 ovarian
[10] = tested on: UACC-62 melanoma
[11] = tested on: HL-60(TB) leukemia
[12] = tested on: NCI-H23 lung
[13] = tested on: NCI-H460 lung
[14] = tested on: SK-OV-3 ovarian
[15] = tested on: SNB-19 CNS

Row | Compound | TGI [1] | TGI [2] | TGI [3] | TGI [4] | TGI [5] | TGI [6] | TGI [7] | TGI [8] | TGI [9] | TGI [10] | TGI [11] | TGI [12] | TGI [13] | TGI [14] | TGI [15]
1 | Cc1cc(C)c(-c2no/c(=N\S(=O)(=O)c3ccc(Cl)cc3)o2)c(C)c1 | > 100 µM | > 100 µM | > 100 µM | > 100 µM | > 100 µM | > 100 µM | > 100 µM | > 100 µM | > 100 µM | > 100 µM | 77.4 µM | > 100 µM | > 100 µM | > 100 µM | > 100 µM
2 | CCCCCCCCCCCCCCCCCCNc1ccn(C2OC(COP(=O)(O)OCC3OC(n4ccc(N)nc4=O)C(O)C3O)C(O)C2O)c(=O)n1 (stereo not given) | > 100 µM | > 100 µM | > 100 µM | > 100 µM | > 100 µM | > 100 µM | > 100 µM | > 100 µM | > 100 µM | > 100 µM | > 100 µM | > 100 µM | > 78.8 µM | > 100 µM | > 100 µM
3 | CC(=O)c1ccc(Nc2c3c(nc4ccccc24)CCCC3)cc1 | > 100 µM | > 84.6 µM | 72.4 µM | > 100 µM | > 51.1 µM | > 100 µM | > 100 µM | > 65 µM | > 100 µM | > 56 µM | > 100 µM | 43.4 µM | > 66.8 µM | > 70.8 µM | 99.5 µM
4 | Cc1ccc(S(=O)(=O)N(CC(O)COc2ccccc2)c2c(F)cccc2F)cc1 (stereo not given) | 34 µM | 95.7 µM | 26.1 µM | 36.9 µM | 27.9 µM | 42.1 µM | 32.5 µM | > 100 µM | 31.7 µM | 36.3 µM | 93.1 µM | 44.8 µM | 31.6 µM | 41.3 µM | > 100 µM
5 | CSc1nncc(-c2cc3c(c(SC)n2)CCCC3)n1 | > 100 µM | > 100 µM | > 100 µM | > 100 µM | > 100 µM | > 100 µM | > 100 µM | > 100 µM | > 100 µM | > 100 µM | > 100 µM | > 100 µM | > 100 µM | > 100 µM | > 100 µM
6 | COc1ccc(OC)c2sc(N3C(=O)/C(=C/c4cccc(Oc5ccccc5)c4)N=C3c3ccccc3)nc12 | > 100 µM | > 100 µM | > 100 µM | > 100 µM | > 100 µM | > 100 µM | > 100 µM | > 100 µM | > 100 µM | > 100 µM | > 100 µM | > 100 µM | > 100 µM | > 100 µM | > 100 µM
7 | NCCOc1cccc(C2(N3CCCCC3)CCCCC2)c1 | 48.4 µM | 62.6 µM | > 100 µM | > 100 µM | 26 µM | 26.1 µM | 52.2 µM | > 100 µM | > 100 µM | 44.2 µM | 89.2 µM | > 100 µM | > 100 µM | > 100 µM | > 100 µM
8 | CCN(CC)CCNc1ccc2ncn3c4ccc(O)cc4c(=O)c1c23 | 11.1 µM | 21.9 µM | 1.96 µM | 14.5 µM | 14.7 µM | 14.1 µM | 21.4 µM | 18.4 µM | 9.81 µM | 11.8 µM | 11.6 µM | 13.8 µM | 12.2 µM | 18.2 µM | 19.2 µM
9 | S=C1Cc2c(-c3ccccc3)cc(-c3cccc(Cl)c3)nc2-c2ccccc2N1 | 56.2 µM | 24.4 µM | 12.8 µM | > 96.1 µM | > 100 µM | 2.21 µM | 28.4 µM | 38.9 µM | 1.21 µM | 5.36 µM | 54.9 µM | 21.2 µM | 7.11 µM | 17.4 µM | 7.97 µM
10 | C=C1CC[C@@H](CCC2CCC3(OC2)O[C@]2(O)CC[C@@]3(C)OC2(C)C)C(C)(C)[C@H]1C/C=C1\CCOC1=O (stereo not given in full) | 31.2 µM | > 71.5 µM | 49.5 µM | 93.9 µM | 35.3 µM | 31.3 µM | 48.3 µM | > 100 µM | > 100 µM | > 100 µM | 17 µM | > 100 µM | 82.7 µM | > 100 µM | > 100 µM
11 | COc1ccc(CCCCNCc2cccc(CNCCCCc3ccc(OC)cc3)c2)cc1 | > 100 µM | 3.42 µM | 3.28 µM | 3.55 µM | 5.22 µM | 4.51 µM | 3.53 µM | 3.54 µM | 3.98 µM | 3.55 µM | 3.98 µM | 3.37 µM | > 19.7 µM | 4.02 µM | 3.29 µM
12 | Cc1ccc(N=N/C(=N/NC(=O)c2ccccc2)c2ccc(N(CCC#N)CCC#N)cc2C)cc1 | > 100 µM | > 100 µM | > 100 µM | > 100 µM | > 100 µM | > 100 µM | > 100 µM | > 100 µM | > 100 µM | > 100 µM | > 100 µM | > 100 µM | > 100 µM | > 100 µM | > 100 µM
13 | O=C(CSCC(=O)N/N=C/c1cccc(O)c1)N/N=C/c1cccc(O)c1 | > 100 µM | > 100 µM | > 100 µM | > 100 µM | > 100 µM | > 100 µM | > 100 µM | > 100 µM | > 100 µM | > 100 µM | > 100 µM | > 100 µM | > 100 µM | > 100 µM | > 100 µM
14 | COC(=O)c1cc2c(cc1Cl)Sc1nnc(Nc3ccccc3)n1S2(=O)=O | 4.02 µM | 19.9 µM | 5.96 µM | 10 µM | 19.5 µM | 16.4 µM | 8.79 µM | 3.87 µM | 8.97 µM | 14.6 µM | 7.62 µM | 6.71 µM | 23.8 µM | 19.4 µM | 7.98 µM
15 | N#Cc1ccccc1OCCOc1ccccc1C#N | > 100 µM | > 100 µM | > 100 µM | > 100 µM | > 100 µM | > 100 µM | > 100 µM | > 100 µM | > 100 µM | > 100 µM | > 100 µM | > 100 µM | > 100 µM | > 100 µM | > 100 µM
16 | Cc1ccc(OCC2OC(n3cnc4c(Cl)nc(Nc5cc(Cl)cc(Cl)c5)nc43)CC2Oc2ccc(C)cc2)cc1 (stereo not given) | > 100 µM | > 100 µM | > 100 µM | > 100 µM | > 100 µM | > 100 µM | > 100 µM | > 100 µM | 59.2 µM | > 100 µM | > 100 µM | > 100 µM | > 100 µM | > 100 µM | > 100 µM
